In brackets after ≈: the same amount, converted by molar mass.
Columns and labels:
[1] = system: Bacillus subtilis; test: Antibacterial activity against Bacillus subtilis 168; assay type: functional
[2] = target: T1, Cell division protein FtsZ (Bacillus subtilis (strain 168)) (UniProt P17865); test: Inhibition of FtsZ-mediated cell division in Bacillus subtilis 168 assessed as drug concentration required to produce filamentation
T1 sequence (whole entry): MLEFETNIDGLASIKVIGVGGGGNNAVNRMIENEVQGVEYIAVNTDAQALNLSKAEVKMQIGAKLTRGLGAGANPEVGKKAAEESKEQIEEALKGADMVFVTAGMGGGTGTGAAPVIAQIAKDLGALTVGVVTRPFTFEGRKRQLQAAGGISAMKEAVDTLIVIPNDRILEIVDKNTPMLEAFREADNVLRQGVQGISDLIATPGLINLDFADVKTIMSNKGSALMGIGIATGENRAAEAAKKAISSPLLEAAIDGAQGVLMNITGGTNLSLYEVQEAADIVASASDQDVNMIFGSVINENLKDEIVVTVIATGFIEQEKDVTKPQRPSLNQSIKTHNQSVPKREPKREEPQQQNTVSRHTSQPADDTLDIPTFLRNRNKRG

[3] = system: Staphylococcus aureus; test: Antibacterial activity against Staphylococcus aureus ATCC 29213; assay type: functional
[4] = system: Staphylococcus aureus; test: Antibacterial activity against methicillin-resistant Staphylococcus aureus ATCC 607004; assay type: functional
[5] = system: Staphylococcus aureus; test: Antibacterial activity against […] Staphylococcus aureus ATCC 29213; assay type: functional
[6] = system: Staphylococcus aureus; test: Antibacterial activity against methicillin-susceptible Staphylococcus aureus ATCC 601055; assay type: functional
[7] = system: Staphylococcus aureus; test: Antibacterial activity against Staphylococcus aureus ATCC 601055 with FtsZ […] point mutation; assay type: functional
[8] = system: Staphylococcus aureus; test: Antibacterial activity against methicillin-resistant Staphylococcus aureus ATCC 43300; assay type: functional
[9] = system: Staphylococcus aureus; test: Antibacterial activity against methicillin-resistant Staphylococcus aureus ATCC 700698; assay type: functional
[10] = system: Staphylococcus epidermidis; test: Antibacterial activity against Staphylococcus epidermidis ATCC 12228; assay type: functional
[11] = system: Staphylococcus aureus; test: Antibacterial activity against methicillin-susceptible Staphylococcus aureus ATCC 25923; assay type: functional
[12] = system: Staphylococcus aureus; test: Antibacterial activity against methicillin-susceptible Staphylococcus aureus ATCC 19636; assay type: functional
[13] = system: Staphylococcus aureus; test: Antibacterial activity against Staphylococcus aureus ATCC 601055 with FtsZ P300R point mutation; assay type: functional
[14] = target: T2, Cell division protein FtsZ (Staphylococcus aureus) (UniProt P0A031); test: Inhibition of FtsZ-mediated cell division in Staphylococcus aureus ATCC 29213 assessed as drug concentration required to produce ballooning
T2 sequence (whole entry): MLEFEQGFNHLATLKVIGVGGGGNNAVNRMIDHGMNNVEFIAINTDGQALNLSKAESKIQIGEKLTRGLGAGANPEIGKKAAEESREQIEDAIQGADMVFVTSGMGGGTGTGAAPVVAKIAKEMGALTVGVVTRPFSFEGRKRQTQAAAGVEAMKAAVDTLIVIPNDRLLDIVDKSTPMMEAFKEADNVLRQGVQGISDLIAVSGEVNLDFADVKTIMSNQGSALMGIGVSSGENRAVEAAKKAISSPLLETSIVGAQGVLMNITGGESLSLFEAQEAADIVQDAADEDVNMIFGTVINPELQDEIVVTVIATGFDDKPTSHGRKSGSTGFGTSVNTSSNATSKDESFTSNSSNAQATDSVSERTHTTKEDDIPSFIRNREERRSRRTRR

Structure (SMILES) | MIC [1] [µg/mL] | Activity [2] [µg/mL] | MIC [3] [µg/mL] | also measured
COc1cccc(C(N)=O)c1OC | > 4000 |  |  | 
COc1cc(C(N)=O)ccc1F | > 4000 |  |  | 
COc1ccc(F)c(C(N)=O)c1Cl | > 4000 | 2050 |  | 
Cc1cccc(C(N)=O)c1 | > 2000 |  |  | 
COc1cccc(C(N)=O)c1 | 4000 (≈ 26500 µM) | 500 | 2050 (≈ 13500 µM) | MIC [4]: 4100 µg/mL (≈ 27100 µM); MIC [5]: 2050 µg/mL (≈ 13500 µM); MIC [6]: 4000 µg/mL (≈ 26500 µM); MIC [7]: > 8000 µg/mL; MIC [8]: 4100 µg/mL (≈ 27100 µM); MIC [9]: 4100 µg/mL (≈ 27100 µM); MIC [10]: 4100 µg/mL (≈ 27100 µM); MIC [11]: 4100 µg/mL (≈ 27100 µM); MIC [12]: 2050 µg/mL (≈ 13500 µM); MIC [13]: > 8000 µg/mL
C/C(=C\C(=O)OCCCCCCCCC(=O)O)C[C@@H]1OC[C@H](C[C@@H]2O[C@H]2[C@@H](C)[C@H](C)O)[C@@H](O)[C@H]1O [MUPIROCIN] |  |  | 0.12 (≈ 0.24 µM) | 
COc1ccc([N+](=O)[O-])c(C(N)=O)c1 | > 4000 |  |  | 
COc1cccc(CC(N)=O)c1 | > 4000 |  |  | 
CNC(=O)c1cccc(OC)c1 | > 4000 |  |  | 
COc1ccc(OC)c(C(N)=O)c1 | > 4000 |  |  | 
COc1cccc(C(N)=O)c1C | > 4000 |  |  | 
COc1cc(OC)cc(C(N)=O)c1 | > 4000 |  |  | 
O=C(O)c1cn(C2CC2)c2cc(N3CCNCC3)c(F)cc2c1=O [CIPROFLOXACIN] |  |  | 0.5 (≈ 1.51 µM) | 
O=C(N[C@H](CO)[C@H](O)c1ccc([N+](=O)[O-])cc1)C(Cl)Cl [CHLORAMPHENICOL] |  |  | 4 (≈ 12.4 µM) | 
CNc1cccc(C(N)=O)c1 | > 4000 |  |  | 
NC(=O)c1cccc(OC(F)(F)F)c1 | > 4000 |  |  | 
CCCCCCCCCCCCOc1cccc(C(N)=O)c1 |  | > 128 | > 256 | 
CC(=O)O[C@H]1C[C@@]2(C)[C@@H](C[C@@H](O)[C@H]3[C@@]4(C)CC[C@@H](O)[C@@H](C)[C@@H]4CC[C@@]32C)/C1=C(\CCC=C(C)C)C(=O)O [FUSIDIC ACID] |  |  | 0.06 (≈ 0.116 µM) | 
COc1cccc(C(N)=O)c1[N+](=O)[O-] | > 4000 |  |  | 
COc1cc(C(N)=O)ccc1[N+](=O)[O-] | > 4000 |  |  | 
COc1ccc(C(N)=O)cc1OC | > 4000 |  |  | 
CSc1cccc(C(N)=O)c1 | > 4000 |  |  | 
COc1cccc(C(N)=S)c1 | 2000 (≈ 12000 µM) |  |  | 
CCOc1cccc(C(N)=O)c1 | 2000 (≈ 12100 µM) | 500 | 1020 (≈ 6200 µM) | 
NC(=O)c1cccc(O)c1 | > 4000 | 3000 |  | 
COc1cccc(C(=O)O)c1 | > 4000 |  |  | 
COc1cccc(C(=O)NO)c1 | 4000 (≈ 23900 µM) |  |  | 
CCCCCCOc1cccc(C(N)=O)c1 | 16 (≈ 72.3 µM) | 8 | 16 (≈ 72.3 µM) | MIC [4]: 32 µg/mL (≈ 145 µM); MIC [5]: 16 µg/mL (≈ 72.3 µM); MIC [6]: 32 µg/mL (≈ 145 µM); MIC [7]: > 128 µg/mL; MIC [8]: 16 µg/mL (≈ 72.3 µM); MIC [9]: 32 µg/mL (≈ 145 µM); MIC [10]: 32 µg/mL (≈ 145 µM); MIC [11]: 16 µg/mL (≈ 72.3 µM); MIC [12]: 16 µg/mL (≈ 72.3 µM); MIC [13]: > 128 µg/mL
COc1ccc(C(N)=O)cc1 | > 4000 |  |  | 
CCCCCCCCCOc1cccc(C(N)=O)c1 | 0.5 (≈ 1.9 µM) | 0.18 | 2 (≈ 7.59 µM) | MIC [6]: 2 µg/mL (≈ 7.59 µM); MIC [7]: > 128 µg/mL; MIC [13]: > 128 µg/mL

More lines, main results first:

MIC [1] [µg/mL] | Activity [2] [µg/mL] | MIC [3] [µg/mL] | Structure (SMILES) | also measured
4 (≈ 17 µM) | 1.5 | 8 (≈ 34 µM) | CCCCCCCOc1cccc(C(N)=O)c1 | 
32 (≈ 154 µM) | 24 | 32 (≈ 154 µM) | CCCCCOc1cccc(C(N)=O)c1 | 
512 (≈ 2740 µM) | 256 | 512 (≈ 2740 µM) | COc1ccc(F)c(C(N)=O)c1F | 
4 (≈ 13.7 µM) | 1 | > 256 | CCCCCCCCCCCOc1cccc(C(N)=O)c1 | 
0.5 (≈ 1.58 µM) | 0.25 | 1 (≈ 3.17 µM) | CCCCCCCCCOc1ccc(Cl)c(C(N)=O)c1F | Activity [14]: 0.5 µg/mL
500 (≈ 2790 µM) | 375 | 256 (≈ 1430 µM) | CCCOc1cccc(C(N)=O)c1 | 
0.125 (≈ 0.418 µM) | 0.125 | 0.5 (≈ 1.67 µM) | CCCCCCCCCOc1ccc(F)c(C(N)=O)c1F | Activity [14]: 0.25 µg/mL
250 (≈ 1820 µM) |  |  | COc1cccc(CN)c1 | 
1 (≈ 4.01 µM) | 0.37 | 4 (≈ 16 µM) | CCCCCCCCOc1cccc(C(N)=O)c1 | 
128 (≈ 662 µM) | 24 | 128 (≈ 662 µM) | CCCCOc1cccc(C(N)=O)c1 | 
0.125 (≈ 0.444 µM) | 0.125 | 0.5 (≈ 1.78 µM) | CCCCCCCCCOc1cccc(C(N)=O)c1F | Activity [14]: 0.5 µg/mL
1020 (≈ 5030 µM) | 256 |  | COc1ccc(Cl)c(C(N)=O)c1F | 
1 (≈ 3.6 µM) | 0.5 | 64 (≈ 231 µM) | CCCCCCCCCCOc1cccc(C(N)=O)c1 | 
512 (≈ 3030 µM) | 128 | 512 (≈ 3030 µM) | COc1cccc(C(N)=O)c1F | 
0.5 (≈ 1.58 µM) | 0.5 | 2 (≈ 6.33 µM) | CCCCCCCCCOc1ccc(F)c(C(N)=O)c1Cl | Activity [14]: 1 µg/mL
800 (≈ 4730 µM) |  |  | COc1ccc(F)c(C(N)=O)c1 | 
1 (≈ 3.55 µM) | 1 | 8 (≈ 28.4 µM) | CCCCCCCCCOc1ccc(F)c(C(N)=O)c1 | Activity [14]: 2 µg/mL

Reference: ChEMBL document CHEMBL1154532, “Antibacterial alkoxybenzamide inhibitors of the essential bacterial cell division protein FtsZ” (2009)
